Values quoted from earlier work as cited in patent US11395812B2, “Docetaxel albumin nanoparticle pharmaceutical composition, preparation method therefor and use thereof” (SICHUAN KELUN PHARMACEUTICAL RESEARCH INSTITUTE CO. LTD., priority 2015, dated 2022).

Target: T1, recombinant human cytochrome P4501B1 (hCYP1B1) (Homo sapiens, UniProt Q16678)
T1 sequence (Q16678 1-543): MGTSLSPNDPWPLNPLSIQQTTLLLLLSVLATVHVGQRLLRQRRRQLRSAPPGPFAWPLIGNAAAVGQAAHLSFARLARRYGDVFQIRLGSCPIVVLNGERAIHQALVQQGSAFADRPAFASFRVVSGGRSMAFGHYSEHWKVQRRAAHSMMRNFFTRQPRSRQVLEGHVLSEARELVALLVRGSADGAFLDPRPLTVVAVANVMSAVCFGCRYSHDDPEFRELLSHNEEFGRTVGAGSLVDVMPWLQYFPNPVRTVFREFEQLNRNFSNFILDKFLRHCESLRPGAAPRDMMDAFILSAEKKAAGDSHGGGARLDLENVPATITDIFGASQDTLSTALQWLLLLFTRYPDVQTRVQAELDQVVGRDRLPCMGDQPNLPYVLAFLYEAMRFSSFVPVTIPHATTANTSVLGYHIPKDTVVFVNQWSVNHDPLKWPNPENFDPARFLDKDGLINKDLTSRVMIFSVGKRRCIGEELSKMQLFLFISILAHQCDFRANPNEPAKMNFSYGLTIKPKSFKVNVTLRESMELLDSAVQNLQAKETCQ
Details: in vitro test

CC(=O)O[C@@]12CO[C@@H]1C[C@@H](O)[C@@]1(C)C(=O)[C@H](O)C3=C(C)[C@@H](OC(=O)[C@H](O)[C@@H](NC(=O)OC(C)(C)C)c4ccccc4)C[C@@](O)([C@@H](OC(=O)c4ccccc4)[C@H]21)C3(C)C [7-epi-docetaxel]
increase of the activity of hCYP1B1: more than 7 times
